Results: US9321760B2 (Merck Patent GmbH, priority 2011, dated 2016)

What follows are molecules tested against P70S6K (T412E mutant) (Homo sapiens (Human), UniProt P23443, T412E) (assay: P70S6K enzyme assay). Conditions: 3 nM P70S6K T412E mutant, 24 μM ATP, 1 μM FITC-AHA-AKRRRLSSLRA-OH substrate peptide, 90 min at 25° C.
Assay type: biochemical
Protocol: The IC50 values reported for the compounds in the Experimental section were derived from the following protocol for the p70S6K enzyme assay.
P70S6K inhibitor compounds were diluted and plated in 96 well plates. A reaction mixture including the following components was then added to the compound plate to initiate the enzyme reaction; P70S6K (3 nM, T412E mutant, Millipore) was mixed with 24 μM ATP in an assay buffer containing 100 mM Hepes (pH 7.5), 5 mM MgCl2, 1 mM DTT, 0.015% Brij and 1 μM of the substrate peptide FITC-AHA-AKRRRLSSLRA-OH (derived from the S6 ribosomal protein sequence, FITC=fluorescein isothiocyanate, AHA=6-aminohexanoic acid). The reaction was incubated for 90 min at 25° C., before the addition of 10 mM EDTA to stop the reaction. The proportion of substrate and product (phosphorylated) peptide was analysed on a Caliper Life Sciences Lab Chip 3000, using a pressure of −1.4 psi, and upstream and downstream voltages of −3000 and −700 respectively. Product peaks were resolved before substrate peaks on the resulting chromatograms.

Chain of P70S6K (T412E mutant) (P23443 whole entry T412E): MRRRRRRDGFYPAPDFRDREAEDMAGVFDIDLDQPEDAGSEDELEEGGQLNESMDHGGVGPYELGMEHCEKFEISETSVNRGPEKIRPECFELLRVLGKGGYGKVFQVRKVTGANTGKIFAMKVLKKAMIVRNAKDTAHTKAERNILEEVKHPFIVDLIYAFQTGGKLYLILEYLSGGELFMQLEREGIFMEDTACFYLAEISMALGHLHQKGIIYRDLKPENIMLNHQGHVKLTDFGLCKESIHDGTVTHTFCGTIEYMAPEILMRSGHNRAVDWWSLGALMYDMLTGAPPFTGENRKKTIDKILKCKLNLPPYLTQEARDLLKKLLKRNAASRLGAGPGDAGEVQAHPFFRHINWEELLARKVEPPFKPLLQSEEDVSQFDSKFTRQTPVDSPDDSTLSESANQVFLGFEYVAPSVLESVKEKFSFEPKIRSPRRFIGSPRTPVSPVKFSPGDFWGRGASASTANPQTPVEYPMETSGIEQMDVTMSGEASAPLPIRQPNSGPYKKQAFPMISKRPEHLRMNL

SMILES	IC50 [nM]
Nc1ncnc(N2CCN([C@@H](CN3CCC3)c3ccc4c(c3)OCCO4)CC2)c1-c1ccc(F)cc1 [Example 94, 6-{4-[(R)-2-Azetidin-1-yl-1-(2,3-dihydro-benzo[1,4]dioxin-6-yl)-ethyl]-piperazin-1-yl}-5-(4-fluoro-phenyl)-pyrimidin-4-ylamine]	1600
N#Cc1cccc([C@@H](CN2CCC2)N2CCN(c3ncnc(N)c3-c3ccc(F)cc3)CC2)c1 [Example 125, 3-((S)-1-{4-[6-Amino-5-(4-fluoro-phenyl)-pyrimidin-4-yl]-piperazin-1-yl}-2-azetidin-1-yl-ethyl)-benzonitrile]	1200
NC(=O)C[C@H](NC(=O)C1(N)CCN(c2ncnc(N)c2Cl)CC1)c1ccc(Cl)cc1 [Example 217, 4-Amino-1-(6-amino-5-chloro-pyrimidin-4-yl)-piperidine-4-carboxylic acid [(S)-2-carbamoyl-1-(4-chloro-phenyl)ethyl]-amide]	820
CCOC(=O)Cn1cc(-c2c(N)ncnc2N2CCN(C(CN3CCC3)c3ccc4c(c3)CCCC4)CC2)cn1 (stereo not drawn) [Example 119, [4-(4-Amino-6-{4-[2-azetidin-1-yl-1-(5,6,7,8-tetrahydro-naphthalen-2-yl)-ethyl]-piperazin-1-yl}-pyrimidin-5-yl)-pyrazol-1-yl]-acetic acid ethyl ester]	22000
NCC(c1ccc(C(F)(F)F)cc1)N1CCN(c2ncnc(N)c2-c2cc[nH]c2)CC1 (stereo not drawn) [Example 37, 6-(4-(2-amino-1-(4-(trifluoromethyl)phenyl)ethyl)piperazin-1-yl)-5-(1H-pyrrol-3-yl)pyrimidin-4-amine]	5.8
Nc1ncnc(N2CC[C@@](N)(CNC(=O)c3ccc(F)cc3F)C2)c1-c1ccc(F)cc1 [Example 248, N—{(R)-3-Amino-1-[6-amino-5-(4-fluoro-phenyl)-pyrimidin-4-yl]-pyrrolidin-3-ylmethyl}-2,4-difluoro-benzamide]	290
NC[C@@H](c1ccc(C(F)(F)F)cc1)N1CCN(c2ncnc(N)c2-c2ccc(F)cc2)CC1 [Example 4, 6-{4-[(R)-2-Amino-1-(4-trifluoromethyl-phenyl)-ethyl]-piperazin-1-yl}-5-(4-fluoro-phenyl)-pyrimidin-4-ylamine]	4.5
CN(C)CCOC(c1ccc(F)cc1)C1CCN(c2ncnc(N)c2-c2ccc(F)cc2)CC1 (stereo not drawn) [Example 147, 5-(4-fluorophenyl)6-(4-((4-fluorophenyl)(2-(dimethlyamino)ethoxy)methyl)piperidin-1-yl)pyrimidin-4-amine]	2
NCC(c1ccc(C(F)(F)F)cc1)N1CCN(c2ncnc(N)c2O)CC1 (stereo not drawn) [Example 35, 4-amino-6-(4-(2-amino-1-(4-(trifluoromethyl)phenyl)ethyl)piperazin-1-yl) pyrimidin-5-ol]	> 1000
N#CC(c1ccc(C(F)(F)F)cc1)N1CCN(c2ncnc(N)c2-c2ccc(F)cc2)CC1 (stereo not drawn) [Example 168, {4-[6-Amino-5-(4-fluoro-phenyl)-pyrimidin-4-yl]-piperazin-1-yl}-(4-trifluoromethyl-phenyl)-acetonitrile]	240
NCC(c1ccc(C(F)(F)F)cc1)C1CCN(c2ncnc(N)c2-c2cnoc2)CC1 (stereo not drawn) [Example 59, 6-(4-(2-amino-1-(4-(trifluoromethyl)phenyl)ethyl)piperidin-1-yl)-5-(isoxazol-4-yl)pyrimidin-4-amine]	140
NCC(c1ccc(F)cc1)N1CCN(c2ncnc(N)c2-c2ccc(F)cc2)CC1 (stereo not drawn) [Example 159, 6-{4-[2-Amino-1-(4-fluoro-phenyl)-ethyl]-piperazin-1-yl}-5-(4-fluoro-phenyl)-pyrimidin-4-ylamine]	4.4
Cc1cc(C(CN2CCC2)N2CCN(c3ncnc(N)c3-c3cn[nH]c3)CC2)ccc1Cl (stereo not drawn) [Example 109, 6-{4-[2-Azetidin-1-yl-1-(4-chloro-3-methyl-phenyl)-ethyl]-piperazin-1-yl}-5-(1H-pyrazol-4-yl)-pyrimidin-4-ylamine]	1900
COc1c(N)ncnc1N1CCN(C(CN)c2ccc(C(F)(F)F)cc2)CC1 (stereo not drawn) [Example 31, 6-(4-(2-amino-1-(4-(trifluoromethyl)phenyl)ethyl)piperazin-1-yl)-5-methoxypyrimidin-4-amine]	40
Cc1ccc([C@H](CCO)NC(=O)C2(N)CCN(c3ncnc(N)c3C#N)CC2)cc1 [Example 227, 4-Amino-1-(6-amino-5-cyano-pyrimidin-4-yl)-piperidine-4-carboxylic acid ((S)-3-hydroxy-1-p-tolyl-propyl)-amide]	280
Nc1ncnc(N2CCN([C@H](CN3CCC3)c3cccc(F)c3)CC2)c1-c1cn[nH]c1 [Example 87, 6-{4-[(S)-2-Azetidin-1-yl-1-(3-fluoro-phenyl)-ethyl]-piperazin-1-yl}-5-(1H-pyrazol-4-yl)-pyrimidin-4-ylamine]	8700
Nc1ncnc(N2CCC(Cc3ccc(C(F)(F)F)cc3)CC2)c1-c1ccc(F)cc1 [Example 48, 5-(4-Fluorophenyl)-6{4-(4-trifluoromethylbenzyl)-piperidin-1-yl}pyrimidin-4-amine]	66

SMILES	IC50 [nM]
Nc1ncnc(N2CCC(N)(C(=O)N[C@@H](CCO)c3ccncc3)CC2)c1Cl [Example 239, 4-Amino-1-(6-amino-5-chloro-pyrimidin-4-yl)-piperidine-4-carboxylic acid ((S)-3-hydroxy-1-pyridin-4-yl-propyl)-amide]	7200
COc1ccc(C(CN)N2CCN(c3ncnc(N)c3-c3ccc(F)cc3)CC2)cn1 (stereo not drawn) [Example 183, 6-(4-(2-amino-1-(6-methoxypyridin-3-yl)ethyl)piperazin-1-yl)-5-(4-fluorophenyl)pyrimidin-4-amine]	3.4
Nc1cc(N2CCN(C(CN3CCCCC3)c3cccc(F)c3)CC2)ncn1 (stereo not drawn) [Example 76, 6-{4-[1-(3-fluorophenyl)-2-piperidin-1-yl-ethyl]-piperazin-1-yl}-pyrimidin-4-ylamine]	> 1000
Nc1cc(N2CCN(C(CN3CCCC3)c3ccc(F)cc3)CC2)ncn1 (stereo not drawn) [Example 78, 6-{4-[1-(4-fluorophenyl)-2-pyrrolidin-1-yl-ethyl]-piperazin-1-yl}-pyrimidin-4-ylamine]	> 1000
Nc1ncnc(N2CCN(C(CN3CCCC3)c3ccc(F)cc3)CC2)c1Br (stereo not drawn) [Example 77, 5-Bromo-6{4-[1-(4-fluorophenyl)-2-pyrrolidin-1-yl-ethyl]-piperazin-1-yl}-pyrimidin-4-ylamine]	640
Nc1ncnc(N2CCN(C(CN3CCC3)c3cccc(Cl)c3Cl)CC2)c1-c1cn[nH]c1 (stereo not drawn) [Example 126, 6-{4-[2-Azetidin-1-yl-1-(2,3-dichloro-phenyl)-ethyl]-piperazin-1-yl}-5-(1H-pyrazol-4-yl)-pyrimidin-4-ylamine]	390
NCC(c1ccc(C(F)(F)F)cc1)N1CCN(c2ncnc(N)c2CN2CC(F)C2)CC1 (stereo not drawn) [Example 45, 6-(4-(2-amino-1-(4-(trifluoromethyl)phenyl)ethyl)piperazin-1-yl)-5-((3-fluoroazetidin-1-yl)methyl)pyrimidin-4-amine]	210
Nc1ncnc(N2CCC(N)(CNC(=O)c3ccc(F)cc3F)C2)c1-c1cccc(F)c1 (stereo not drawn) [Example 204, N-{3-Amino-1-[6-amino-5-(3-fluoro-phenyl)-pyrimidin-4-yl]-pyrrolidin-3-ylmethyl}-2,4-difluoro-benzamide]	2.6
C=Cc1c(N)ncnc1N1CCN(C(CN)c2ccc(C(F)(F)F)cc2)CC1 (stereo not drawn) [Example 19, 6-(4-(2-amino-1-(4-(trifluoromethyl)-phenyl)ethyl)piperazin-1-yl)-5-vinylpyrimidin-4-amine]	19
Nc1ncnc(N2CCN([C@@H](CN3CCC3)c3cccc(F)c3)CC2)c1-c1ccc(F)cc1 [Example 103, 6-{4-[(R)-2-Azetidin-1-yl-1-(3-fluoro-phenyl)-ethyl]-piperazin-1-yl}-5-(4-fluoro-phenyl)-pyrimidin-4-ylamine]	920
N#CC(c1ccc(F)cc1)N1CCN(c2ncnc(N)c2-c2ccc(F)cc2)CC1 (stereo not drawn) [Example 158, {4-[6-Amino-5-(4-fluoro-phenyl)-pyrimidin-4-yl]-piperazin-1-yl}-(4-fluoro-phenyl)-acetonitrile]	240
Nc1ncnc(N2CCN(C(CN3CCC3)c3ccc4[nH]c(=O)sc4c3)CC2)c1-c1ccc(F)cc1 (stereo not drawn) [Example 118, 6-(1-{4-[6-Amino-5-(4-fluoro-phenyl)-pyrimidin-4-yl]-piperazin-1-yl}-2-azetidin-1-yl-ethyl)-3H-benzothiazol-2-one]	140
Nc1ncnc(N2CCN(C(CN3CCC3)c3ccc(Cl)c(C(F)(F)F)c3)CC2)c1-c1cn[nH]c1 (stereo not drawn) [Example 132, 6-{4-[2-Azetidin-1-yl-1-(4-chloro-3-trifluoromethyl-phenyl)-ethyl]-piperazin-1-yl}-5-(1H-pyrazol-4-yl)-pyrimidin-4-ylamine]	1400
NC[C@@H](c1ccc(C(F)(F)F)cc1)C1CCN(c2ncnc(N)c2-c2cn[nH]c2)CC1 (single isomer, unassigned) [Example 57]	4.7
Nc1ncnc(N2CCC(N)(CNC(=O)c3ccc(F)cc3F)C2)c1Br (stereo not drawn) [Example 195, N-[3-Amino-1-(6-amino-5-bromo-pyrimidin-4-yl)-pyrrolidin-3-ylmethyl]-2,4-difluoro-benzamide]	3.3
NC[C@H](c1ccc(C(F)(F)F)cc1)C1CCN(c2ncnc(N)c2-c2cn[nH]c2)CC1 (single isomer, unassigned) [Example 56]	22
